# Article PMC10726357, “New Genetically Engineered Derivatives of Antibacterial Darobactins Underpin Their Potential for Antibiotic Development” (Journal of Medicinal Chemistry, 2023)
# Like-named read-outs stand apart in the source and are kept apart here.
# Columns and labels:
# [1] = test system: HepG2
# [2] = test system: K. pneumoniae DSM-30104; type: cell-based, Klebsiella pneumoniae
# Description: (§1) The antibacterial activity of novel darobactins was determined by the evaluation of the minimum inhibitory concentration (MIC) as previously described for crude extracts and for pure darobactin analogues.[12]
# [3] = human plasma; 1 μM
# Description: (§2) To determine stability in plasma, the compound (1 μM) was incubated with pooled CD-1 mouse, Wistar rat, or human plasma (Neo Biotech, Nanterre, France). […] Samples were stored on ice until the end of the incubation, and precipitated protein was removed by centrifugation (15 min, 4 °C, 4000g, and 2 centrifugation steps). The concentration of the remaining test compound at the different time points was analyzed by HPLC-MS/MS (TSQ Quantum Access MAX, Thermo Fisher, Dreieich, Germany). The plasma stability of procaine, propantheline, and diltiazem was determined in parallel to confirm the enzymatic activity.
# [4] = test system: E. coli ATCC25922; type: cell-based, Escherichia coli
# Description: as §1
# [5] = test system: P. aeruginosa 84389 (MDR clinical isolate); assay: microbe, parasite or virus in culture
# Description: as §1
# [6] = test system: P. aeruginosa 83979 (MDR clinical isolate); assay: microbe, parasite or virus in culture; settings: for MIC: Pseudomonas aeruginosa
# Description: as §1
# [7] = test system: P. aeruginosa PA01; type: cell-based, Pseudomonas aeruginosa
# Description: as §1
# [8] = test system: P. aeruginosa PA14 DSM 19882; type: cell-based, Pseudomonas aeruginosa
# Description: as §1
# [9] = for liver microsomes Clint / liver microsomes t1/2: 1 μM; for liver microsomes t1/2: 120 min incubation
# Description: The metabolic stability of testosterone, verapamil, and ketoconazole was determined in parallel to confirm the enzymatic activity of mouse/rat liver microsomes; for human liver microsomes, testosterone, diclofenac, and propranolol were used. Incubation was stopped after defined time points by precipitation of aliquots of enzymes with 2 volumes of cold acetonitrile containing an internal standard (15 nM diphenhydramine). Samples were stored on ice until the end of the incubation, and precipitated protein was removed by centrifugation (15 min, 4 °C, and 4000g). The concentration of the remaining test compound at the different time points was analyzed by HPLC-MS/MS (TSQ Altis Plus, Thermo Fisher, Dreieich, Germany) and used to determine the half-life (t1/2).
# [10] = test system: Acinetobacter baumannii DSM-30007; type: cell-based
# Description: as §1
# [11] = rat (Wistar) plasma; 1 μM
# Description: as §2
# [12] = test system: A. baumannii DSM-30008; type: cell-based, Acinetobacter baumannii
# Description: as §1
# [13] = test system: A. baumannii NCTC 13301; type: cell-based, Acinetobacter baumannii
# Description: as §1
# [14] = test system: A. baumannii ATCC 17978; type: cell-based, Acinetobacter baumannii
# Description: as §1
# [15] = target: T1, EcBamA (E. coli BamA barrel domain) (Escherichia coli, UniProt P0A940, C690S/C700S); assay: Microscale thermophoresis (MST) KD determination; type: binding
# T1 construct: The E. coli BamA barrel domain (BamA-β) (residues 421–810, C690S, C700S); made in house
# Description: As an alternative to the previously published methods using isothermal titration calorimetry (ITC), we established a KD determination assay using microscale thermophoresis (MST) to enable higher throughput.
# Microscale thermophoresis (MST) (serial no. 201709-BR-N024, Monolith NT.115 Micro Scale Thermophoresis, NanoTemper Technologies GmbH) was performed according to the standard protocol from the manufacturer NanoTemper Technologies GmbH using a Monolith His-Tag Labeling Kit RED-tris-NTA second-generation kit. The buffer used was HEPES (50 mM), pH 7.6, MgCl2 (5 mM), and Tween (0.05%). […] A 1:1 dilution of the ligand over 16 samples was performed using a stock of ligand (in water) diluted in HEPES buffer. Nonhydrophobic capillary tubes were used. A pretest to check for the labeling and compound fluorescence was performed for every sample followed by a binding affinity (KD) determination. Each sample was measured after 15 min of incubation at RT and analyzed in MO Control version 1.6.
# [16] = test system: Gram-negative bacteria; settings: result in words; cited from earlier work
compound,measurement,setting,value
"N=C(N)NCCC[C@H](NC(=O)[C@H]1NC(=O)[C@H](CO)NC(=O)[C@H]2NC(=O)[C@H](CCC(N)=O)NC(=O)[C@@H](N)Cc3c[nH]c4c(cccc34)O[C@@H]2c2c[nH]c3cc(ccc23)[C@@H]1CCCN)C(=O)N[C@@H](Cc1c[nH]c2ccccc12)C(=O)O [D69, darobactin 69]",IC50 HepG2,[1],> 37 µg/mL
same,MIC K. pneumoniae [DSM-30104],[2]; DSM-30104,4 µg/mL
same,plasma t1/2,[3],>240 min
same,MIC E. coli [ATCC25922],[4]; ATCC25922,1 µg/mL
same,MIC P. aeruginosa 84389,[5]; 84389 (MDR clinical isolate),16–32 μg mL^–1
same,MIC P. aeruginosa 83979,[6]; 83979 (MDR clinical isolate),8–16 μg mL^–1
same,MIC P. aeruginosa [PA01],[7],1 µg/mL
same,MIC Pseudomonas aeruginosa PA01 DSM 22644,[7],1 μg mL^–1
same,MIC P. aeruginosa PA14 DSM 19882,[8],16 μg mL^–1
same,liver microsomes Clint,[9]; human,< 11.6 µL/mg/min
same,liver microsomes t1/2,[9]; human,> 120 min
same,liver microsomes Clint,[9]; mouse C57BL/6,< 11.6 µL/mg/min
same,liver microsomes t1/2,[9]; mouse C57BL/6,> 120 min
same,metabolism in murine liver microsomes,[9]; over 2 h,not metabolized
same,liver microsomes Clint,[9]; rat (Wistar),< 11.6 µL/mg/min
same,liver microsomes t1/2,[9]; rat (Wistar),> 120 min
same,plasma t1/2,"mouse CD-1 plasma, 1 μM",>240 min
same,plasma stability (degradation),over 4 h,no degradation
same,MIC Acinetobacter baumannii DSM-30007,[10],2 μg mL^–1
same,plasma t1/2,[11],>240 min
same,MIC A. baumannii DSM-30008,[12]; DSM-30008,0.5 μg mL^–1
same,MIC A. baumannii [DSM-30008],[12]; DSM-30008,0.5 µg/mL
same,MIC A. baumannii NCTC 13301,[13],8–16 μg mL^–1
same,MIC A. baumannii ATCC 17978,[14],16 μg mL^–1
same,Kd,[15],1.4 ± 0.4 µM
"N=C(N)NCC[C@H]1c2ccc3c(c[nH]c3c2)[C@H]2Oc3cccc4c(c[nH]c34)C[C@H](N)C(=O)N[C@@H](CC(N)=O)C(=O)N[C@@H]2C(=O)N[C@@H](CO)C(=O)N[C@@H]1C(=O)N[C@@H](CO)C(=O)N[C@@H](Cc1ccccc1)C(=O)O [DD, darobactin D, reference compound]",MIC K. pneumoniae [DSM-30104],[2]; DSM-30104,8 to 16 µg/mL
same,MIC E. coli [ATCC25922],[4]; ATCC25922,1 µg/mL
same,MIC P. aeruginosa [PA01],[7],2 µg/mL
same,published antibacterial activity,[16],inactive
same,MIC A. baumannii [DSM-30008],[12]; DSM-30008,4 to 8 µg/mL
"darobactin E (WSWSKSF) [DE, native darobactin analogue, core peptide WSWSKSF]",published antibacterial activity,[16],rather inactive
C[C@@H](O)[C@H]1C(=O)N2C(C(=O)O)=C(S[C@@H]3CN[C@H](C(=O)N(C)C)C3)[C@H](C)[C@H]12 [meropenem],MIC,"[5]; Pseudomonas aeruginosa, read-out: MIC P. aeruginosa 84389",16 µg/mL
same,MIC,"[6]; BAL, read-out: resistance profile, MIC, P. aeroginosa 83979",> 16 µg/mL
same,MIC,[6]; read-out: MIC P. aeruginosa 83979,16 µg/mL
C[C@@H](O)[C@@H]1NC(=O)[C@H]2NC(=O)[C@H](CCC(N)=O)NC(=O)[C@@H](N)Cc3c[nH]c4c(cccc34)O[C@@H]2c2c[nH]c3cc(ccc23)[C@H](CCCN)[C@@H](C(=O)N[C@@H](CCCNC(=N)N)C(=O)N[C@@H](Cc2c[nH]c3ccccc23)C(=O)O)NC1=O [D61],IC50 HepG2,"[1]; cytotoxicity, n = 2",> 37 µg/mL
same,MIC K. pneumoniae [DSM-30104],"[2]; pure compound, n = 2, Table 2",8 µg/mL
same,MIC E. coli [ATCC25922],"[4]; pure compound, n = 2, Table 2",2 µg/mL
same,MIC P. aeruginosa [PA01],"[7]; pure compound, n = 2, Table 2",4 µg/mL
same,MIC A. baumannii [DSM-30008],"[12]; pure compound, n = 2, Table 2",0.5 µg/mL
same,Kd,[15],3.6 ± 0.6 µM
C[C@@H](O)[C@@H]1NC(=O)[C@H]2NC(=O)[C@H](CO)NC(=O)[C@@H](N)Cc3c[nH]c4c(cccc34)O[C@@H]2c2c[nH]c3cc(ccc23)[C@H](CCCN)[C@@H](C(=O)N[C@@H](CCCNC(=N)N)C(=O)N[C@@H](Cc2c[nH]c3ccccc23)C(=O)O)NC1=O [D64],IC50 HepG2,[1],> 37 µg/mL
same,MIC K. pneumoniae [DSM-30104],[2]; DSM-30104,16 µg/mL
same,MIC E. coli [ATCC25922],[4]; ATCC25922,4 µg/mL
same,MIC P. aeruginosa [PA01],[7],2 µg/mL
same,MIC A. baumannii [DSM-30008],[12]; DSM-30008,0.5 µg/mL
same,Kd,[15],5.1 ± 0.7 µM
